For data set [1], the system named is human umbilical vein endothelial cells (HUVEC). The experiment in a line: In vitro HUVEC proliferation assay (MTS) of hVEGF inhibitory peptides. The class given is cell-based. The settings on record: 10 ng/ml VEGF, 48 hrs. As to the method:
In this Example, experiments conducted to determine the anti-proliferative activity of anti-VEG peptides are described. The antiproliferative activity of VEGF inhibitory peptides was determined using human umbilical vein endothelial cells (HUVEC) as follows. An early passage (less than six) of HUVEC was seeded in 96-well plates at 5000 cells per well and starved for 18 hrs in 200 μl EBM medium (Cambrex) without growth factors and supplemented with 0.5% FBS, at 37° C. with 5% CO2. The medium was replaced with 180 μl of growth medium containing EBM medium with 5% fetal bovine serum and 1% DMSO. Then, 20 μl of VEGF preincubated for one hour with varying peptide concentrations (the final DMSO concentration of all the wells was 1%) were added to the wells for a final VEGF concentration of 10 ng/ml. Human VEGF antibody (R & D Systems) was used as a positive control. Cells with 0.31 to 20 ng/ml concentrations of VEGF alone in the growth medium were used to construct a standard growth curve. The cells were further incubated for 48 hrs, and the cell proliferation was measured using an MTS assay (CellTiter 96 Aqueous One Solution Cell Proliferation Assay Kit; Promega). Then, 40 μl of the MTS tetrazolium solution was added to each well and after 3 and 4 hours incubation, the plates were read at 490 nm. The absorption of media alone was subtracted from all data points.

Data set [2] concerns the target T1, Human VEGF165 (Homo sapiens, UniProt P15692).
T1 construct: purchased Biosource
T1 sequence (P15692 27-191 isoform P15692-4): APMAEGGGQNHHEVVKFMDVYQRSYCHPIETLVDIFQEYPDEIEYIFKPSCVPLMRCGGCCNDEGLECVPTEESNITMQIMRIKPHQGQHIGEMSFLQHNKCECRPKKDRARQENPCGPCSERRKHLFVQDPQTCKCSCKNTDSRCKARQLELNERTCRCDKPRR
The experiment in a line: BIAcore surface plasmon resonance binding analysis of VEGF binding peptides. How it is done:
FIG. 3 provides results of a BIACORE binding analysis of VEGF binding peptides. Binding curves were obtained as described in the Examples. […]
In this Example, experiments conducted to assess the affinities of the peptides for VEGF are described. Affinities of the peptides for VEGF were measured using a BIAcore™-3000 surface plasmon resonance system (Biacore). A CM5 sensor chip was conditioned with 50 mM NaOH, 0.1% HCl, 0.1% SDS, and 0.08% H3PO4, and activated for covalent coupling of […] using N-ethyl-N′-(3-dimethylaminopropyl)-carbodiimide hydrochloride (EDC) and N-hydroxysuccinimide (NHS) according to the supplier's instructions (Biacore). Human VEGF165 (Biosource) was diluted to 5 μg/ml in 20 mM sodium acetate, pH 4.8 and injected at a flow rate of 2 μl/min to achieve approximately 1000 to 6000 response units (RU) of coupled protein. TNF[…] (human TNF[…], Biosource, Int., Camarillo, Calif.) was similarly coupled to the CM5 sensor chip to approximately 850 to 3500 RU in the reference lane. A solution of 1 M ethanolamine was injected as a blocking agent. In some experiments, an additional solution of EDC and NHS were injected to improve baseline stability and a solution of 1 M ethanolamine injected as a blocking agent. The reference lane is activated with EDC and NHS and blocked with ethanolamine.
Peptides were synthesized using standard FMOC chemistry, purified by reverse phase HPLC to >95% purity (SynPep), and stored at 10 mg/mL in DMSO. For kinetic measurements, twofold serial diluted peptides in HBS-EP buffer, 0.01 M HEPES pH 7.4, 0.15 M NaCl, 3 mM EDTA, 0.005% Surfactant P20 (Biacore), were injected at 25° C. at a flow rate of 20 μL/min. Two-fold serial diluted DMSO samples and buffer samples were also injected for background subtraction. Kinetic parameters were calculated using BIAevaluation 3.1 software.
In general terms: SPR reads the build-up and loss of mass on a sensor chip optically.

A short description of data set [3]: Repeat insult patch test (RIPT) on human skin. The class given is in vivo. The settings on record: 0.5% (w/v) in deionized water/butylene glycol; approximately 0.2 mL; 200 human volunteers. As to the method:
In this Example, experiments conducted to determine the patch test result for anti-VEGF peptides are described. Samples of the aVEGF peptide CK37281 dosed at 0.5% (w/v) were formulated in a base formulation containing deionized water/butylene glycol. Approximately 0.2 mL of the formulation was applied to 200 human volunteers in a repeated insult patch test according to procedures designed by Clinical Research Laboratories, Inc. (Piscataway, N.J.).

Data set [4] addresses T1, Human VEGF165. The data set is described as follows: BIAcore binding analysis of BBI-VEGF constructs. To be noted: trypsin and chymotrypsin coupled in remaining lanes. As to the method:
In this Example, experiments conducted to determine the binding affinity of constructs produced as indicated in Example 9 are described. Affinities of BBI-VEGF constructs for VEGF were measured using BLAcore-3000 surface plasmon resonance (Biacore). A CM5 sensor chip was conditioned with 50 mM NaOH and activated for covalent coupling of VEGF using N-ethyl-N′-3-dimethylaminopropyl)-carbodiimide hydrochloride (EDC) and N-hydroxysuccinimide (NHS) according to the supplier's instructions (Biacore). VEGF (human VEGF165, Biosource) was diluated to 5 μg/mL in 20 mM sodium acetate, pH 4.8, and injected at a flow rate of 2 μL/min to achieve approximately 1000 to 6000 response units (RU) of coupled protein. Trypsin and chymotrypsin were similarly coupled to the CM5 sensor chip to approximately 850 to 3500 RU in remaining lanes. A solution of 1 M ethanolamine was injected as a blocking agent.

Where [5] appears, read: two state reaction model with conformation change.

Positions of bridges follow the written chain, without caps; N, C: chain ends. Residues, ends and D or L forms follow the SMILES beside them.

Take `CC(C)C[C@@H]1NC(=O)[C@H](CC(N)=O)NC(=O)[C@@H](NC(=O)[C@H](C)N)CSSC[C@@H](C(=O)NCC(=O)NCC(=O)NCC(=O)O)NC(=O)[C@H](Cc2c[nH]c3ccccc23)NC(=O)[C@H](Cc2ccccc2)NC(=O)[C@H](Cc2c[nH]cn2)NC(=O)[C@@H]2CCCN2C(=O)[C@H](Cc2c[nH]c3ccccc23)NC1=O` [CK37283, NLWPHFW]: the IC50 antiproliferative activity result in data set [1] was “in the micromolar range”. In data set [2] (setting [5]), this molecule came in with a ka2 of 0.00634 s⁻¹ and a kd1 of 0.318 s⁻¹.
Take `CC(C)C[C@@H]1NC(=O)[C@H](CC(N)=O)NC(=O)[C@H](Cc2ccc(O)cc2)NC(=O)[C@@H](NC(=O)[C@H](C)N)CSSC[C@@H](C(=O)NCC(=O)NCC(=O)NCC(=O)O)NC(=O)[C@H]([C@@H](C)O)NC(=O)[C@H](Cc2c[nH]c3ccccc23)NC(=O)CNC(=O)[C@H](Cc2ccc(O)cc2)NC1=O` [CK37281] (H-ACYNLYGWTCGGG-OH; disulfide 2-10 (inferred); N-terminus and C-terminus assumed): in data set [1], the IC50 antiproliferative activity result is listed as “in the micromolar range”. Besides, in data set [2] (setting [5]), the ka2 stood at 0.0015 s⁻¹ and the kd1 came out at 0.0122 s⁻¹. Moreover, the “dermal irritation or sensitization” value in data set [3] is on record as “no dermal irritation or sensitization”.
Take `CC[C@H](C)[C@@H]1NC(=O)[C@H](CC(=O)O)NC(=O)[C@@H](NC(=O)[C@H](CC(N)=O)NC(=O)[C@@H]2CCCN2C(=O)[C@H](CCC(=O)O)NC(=O)[C@@H](N)C(C)C)CSSC[C@@H](C(=O)N[C@@H](Cc2ccccc2)C(=O)N[C@@H](CCC(=O)O)C(=O)N[C@@H](CCCNC(=N)N)C(=O)N[C@@H](CC(C)C)C(N)=O)NC(=O)[C@H](CCC(=O)O)NC(=O)[C@H](Cc2c[nH]c3ccccc23)NC(=O)[C@H](CCC(=O)O)NC(=O)[C@H](Cc2c[nH]c3ccccc23)NC(=O)[C@H](CCSC)NC(=O)[C@H](C(C)C)NC(=O)[C@H](Cc2c[nH]cn2)NC1=O` [v114, reference compound] (H-VEPNCDIHVMWEWECFERL-NH2; disulfide 5-15; N-terminus and C-terminus assumed): the kd1 in data set [2] (1:1 Langmuir binding fit, 1000 RU VEGF, 850 RU TNF) is 0.167 s⁻¹.

B1: BBI-VEGF1: Bowman-Birk inhibitor fusion with one binding loop replaced by anti-VEGF peptide (protein)
chain: DDESSKPCCDQCACYNLYGWTCRCSDMRLNSCHSACKSCICALSYPAQCFCVDITDFCYEPCKPSEDDKEN
modifications: synthetic BBI-VEGF1 fusion protein
With B1, the “binding to VEGF” value is given as “binds specifically to VEGF” in data set [4] and “Selective binding affinity to VEGF” in data set [4] (listed as BBI-VEGF).

The values above are taken from patent US7524816B2, “Peptides and supported peptides for treating skin diseases” (Genencor International, Inc., priority 2003, dated 2009).
